The source of these data is patent US20080125663A1, “Pre-And Intra-Operative Imaging of Testicular Torsion” (University of Rochester Medical Center, priority 2006, published 2008).

One data set concerns mammals. The conditions noted are these: cited from earlier work; for neuronal toxicity: used in mammals.
The conditions of data set [1]: cited from earlier work.
Another data set concerns testes of a rat. As to the kind of experiment: Near IR fluorescence imaging of testicular perfusion after unilateral interruption of blood flow to the right testis. The format is in vivo.
Where [2] appears, read: bulldog clamp, 0.5 ml of 2.5 mg/ml ICG IV, imaged through the scrotum.

“Also recorded” adds a separate entry of the source.

Experimental for testes of a rat: Intraoperative video angiography is performed with a laser-fluorescence imaging device (Novadaq Technologies, Inc., Toronto, Canada) consisting of a near infrared (NIR) laser light source and a NIR-sensitive digital camcorder. For measurements, the unit is positioned 30 to 40 cm from the area of interest. ICG, dissolved in water, is then injected as a bolus. When ICG is used as the imaging dye, NIR light emitted by the laser light source induces ICG fluorescence. The fluorescence is typically imaged by a video camera, with optical filtering to block ambient and laser light so that only ICG fluorescence is captured. […] Two rats were subjected to unilateral interruption of blood flow to the right testis. In rat A, a bulldog clamp was used, in rat B, a mosquito clamp (a smaller clamp designed to cut off blood flow in small blood vessels) was used. ICG was administered by IV to each rat to determine the ability to visualize the degree to which the testicle underwent hypoperfusion or lack of perfusion. Prior to administration of ICG, rat A was first subjected to near IR and imaged. […] 0.5 ml of ICG at a concentration of 2.5 mg/ml was then administered by IV. The right spermatic cord was clamped with a bulldog clamp to create vascular obstruction and the testicles were imaged.

For the compound `N=C(N)c1ccc(/C=C/c2ccc(C(=N)N)cc2O)cc1` [Fluorogold], the neuronal toxicity result with mammals is given as “low evidence of neuronal toxicity”.
Turning to `CC1(C)C(/C=C/C=C/C=C/C=C2\N(CCCCS(=O)(=O)O)c3ccc4ccccc4c3C2(C)C)=[N+](CCCCS(=O)(=O)[O-])c2ccc3ccccc3c21` [ICG, indocyanine green], the distribution result in data set [1] (after intravenous injection, with normal vascular permeability) is listed as “remains intravascular”. Moreover, the “time to binding, mainly to globulins (1-lipoproteins)” value in data set [1] (after intravenous injection) was 1 to 2 s. Besides, in data set [1] (in vivo), the enterohepatic recirculation entry is recorded as “does not undergo enterohepatic recirculation”, the excretion result is on record as “excreted exclusively by the liver”, the “metabolism in the body” value is given as “not metabolized” and the “reabsorption from the intestine” value is “not reabsorbed from the intestine”. Moreover, the “fluorescence of the right testicle after removal of the clamp (reperfusion)” value in the data set with testes of a rat (bulldog clamp removed from the spermatic cord) was “restoration of fluorescence; also recorded: Fluoresence of the right testicle was observed”. Further, the “fluorescence of the right testicle during clamp obstruction of the right spermatic cord” value with testes of a rat (bulldog clamp, 0.5 ml of 2.5 mg/ml ICG IV, exposed testes) is on record as “absence of fluorescence”. In the data set with testes of a rat (setting [2]), the “fluorescence of the left hemiscrotum (unclamped side)” value is on record as “intense fluorescence” and the “fluorescence of the right hemiscrotum (clamped side)” value is “low fluorescence”. Also, in the data set on testes of a rat (mosquito (vascular) clamp, ICG IV), the “differential perfusion seen after occlusion” value is “obvious differential perfusion”. Also, the toxicity entry in the data set with mammals (in vivo) is listed as “low toxicity”. The neuronal toxicity entry with mammals is “low evidence of neuronal toxicity”.
On to Fast Blue, for which the neuronal toxicity entry in the data set on mammals is given as “low evidence of neuronal toxicity”.
